Assay results as given in US20160280736A1, “CYCLIC PEPTIDE COMPOUND, AND PREPARATION METHOD, PHARMACEUTICAL COMPOSITION AND USE THEREOF” (HANGZHOU GUANYU BIO-MEDICAL CO., LTD., priority 2013, published 2016).

Columns and labels:
[1] = system: Huh-7 (human hepatoma cells); assay: MTT cancer cell growth inhibition; format: cell-based; conditions: Huh-7, 72 h, Huh-7 cells, 72 hours incubation
From the text: (§1) MTT assay principle is yellow MTT can penetrate membrane into the cell, succinic dehydrogenase of the mitochondria in living cells can make exogenous MTT reduction of insoluble in water of blue-violet acicular formazan for crystallization and deposition in the cell, crystallization can be dissolved dimethyl sulfoxide (DMSO) solution, detected its absorbance at 490 nm/570 nm wavelength by enzyme-linked immunosorbent assay, which can reflect the number of cells.
(§2) Using DMEM+10% FBS culture medium or using 1640+10% FBS culture, respectively.
(§3) Experimental group: 190 μl cell suspension+10 μl different concentrations of drugs (the final concentration is 10^−5˜10^−10 M)
(§4) a) Cells were seeded in 96-well plates with the inoculation of 1500/well, 190 μl/hole, 37° C., 5% of CO2 incubator overnight;
(§5) b) The next day each well was added 10 μl of different drugs. The final concentration of drug was 10^−5˜10^−10 M, three parallel holes; 37° C., 5% CO2 culture incubator for 72 hours incubation;
(§6) c) Per well was added 20 μl 5 mg/ml of MTT, 37° C., 5% CO2 culture incubator for 4 hours incubation;
(§7) d) The supernatant was discarded. Each well was added 100 μl of DMSO and oscillation;
(§8) e) 570 nm readings. Calculate cell viability. GI50 calculation based on the results.

[2] = system: K562 (human leukemia cells); assay: MTT cancer cell growth inhibition; format: cell-based; conditions: K562, 72 h, 72 hours incubation
From the text: as §1, §2, §3, §4, §5, §6, §7, §8

[3] = system: KBM-5 (human chronic myelogenous leukemia); assay: MTT cancer cell growth inhibition; format: cell-based; conditions: KBM5, 72 h, KBM-5 cells, 72 hours incubation
From the text: as §1, §2, §3, §4, §5, §6, §7, §8

[4] = system: KBM5-T315I (human chronic myelogenous leukemia); assay: MTT cancer cell growth inhibition; format: cell-based; conditions: 72 h, KBM5-T315I cells, 72 hours incubation, read-out: GI50 KBM5-T
From the text: as §1, §2, §3, §4, §5, §6, §7, §8

[5] = system: MDA-MB-231 (breast cancer cells); assay: MTT cancer cell growth inhibition; format: cell-based; conditions: Homo sapiens, MDA-MB-231, 72 h, MDA-MB-231 cells, 72 hours incubation
From the text: as §1, §2, §3, §4, §5, §6, §7, §8

[6] = system: N-87 (human gastric cancer cells); assay: MTT cancer cell growth inhibition; format: cell-based; conditions: 72 h, N-87 cells, 72 hours incubation
From the text: as §1, §2, §3, §4, §5, §6, §7, §8

[7] = system: SGC-7901 (human gastric cancer cells); assay: MTT cancer cell growth inhibition; format: cell-based; conditions: SGC-7901, 72 h, SGC-7901 cells, 72 hours incubation, read-out: GI50 SGC-79
From the text: as §1, §2, §3, §4, §5, §6, §7, §8

[8] = system: Bel-7402 (human hepatoma cells); assay: MTT cancer cell growth inhibition; format: cell-based; conditions: Bel-7402, 72 h, Bel-7402 cells, 72 hours incubation, read-out: GI50 Bel-7
From the text: as §1, §2, §3, §4, §5, §6, §7, §8

[9] = system: HCC827 (human non-small cell lung cancer cells); assay: MTT cancer cell growth inhibition; format: cell-based; conditions: HCC827, 72 h, 72 hours incubation, read-out: GI50 HCC8
From the text: as §1, §2, §3, §4, §5, §6, §7, §8

[10] = biological target: HDAC1 (Homo sapiens, UniProt Q13547); assay: HDAC biochemical activity measurement (fluorescent substrate deacetylation); conditions: HDAC1 enzyme, 37°, 30 minutes
Description: (§9) Measurement principle: The chemical activity of the compound is determined according to the degree of deacetylation inhibition of the HDAC enzyme. This experiment measured the degree of deacetylation related to tumor proliferation and metastasis of HDAC1, HDAC2, HDAC3, HDAC8, HDAC11 five subtypes HDAC enzymes. After the substrate containing an acetylated lysine side chain and HDAC enzyme are labeled with a fluorescent label, the fluorescent substrate is de acetyl. The fluorescent labeled substrate is cleaved by the enzyme, and the fluorescent substance is released, which generates 460 nm emission light under the excitation of 360 nm light.
(§10) Specific steps: HDAC substrate was diluted with reaction buffer to 200M (reaction concentration of 20M), the HDAC enzyme was diluted to the appropriate concentration, then added different concentrations of the test compounds and acted at 37 ? 30 minutes, and then added the same volume of 2-times concentration substrate developing solution (developer), incubated at room temperature for 15 minutes. Finally, the last reading measured with a microplate plate reader, excitation light was 360 nm, the emitted light was 460 nm, data processing software was Prime 4, and the results are shown in Table 1.

[11] = biological target: HDAC2 (Homo sapiens, UniProt Q92769); assay: as above; conditions: HDAC2 enzyme, 37°, 30 minutes
Description: as §9, §10

[12] = biological target: T1, HDAC8 (Homo sapiens, UniProt Q9BY41); assay: as above; conditions: HDAC8 enzyme, 37°, 30 minutes
T1 sequence (Q9BY41 1-377): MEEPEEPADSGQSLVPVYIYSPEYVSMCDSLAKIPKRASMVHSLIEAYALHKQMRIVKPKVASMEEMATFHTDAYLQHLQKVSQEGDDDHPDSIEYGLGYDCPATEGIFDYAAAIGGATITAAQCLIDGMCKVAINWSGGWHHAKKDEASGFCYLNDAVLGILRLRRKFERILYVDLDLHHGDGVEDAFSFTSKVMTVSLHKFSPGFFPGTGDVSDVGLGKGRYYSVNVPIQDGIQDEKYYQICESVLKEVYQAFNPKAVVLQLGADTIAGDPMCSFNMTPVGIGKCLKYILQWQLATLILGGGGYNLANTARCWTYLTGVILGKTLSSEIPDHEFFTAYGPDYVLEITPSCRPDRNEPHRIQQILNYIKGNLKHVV
Description: as §9, §10

[13] = system: A549 (human lung cancer cells); assay: MTT cancer cell growth inhibition; format: cell-based; conditions: Homo sapiens, A549, 72 h, 72 hours incubation, A549 cells, read-out: GI50 A549
From the text: as §1, §2, §3, §4, §5, §6, §7, §8

[14] = system: BGC-823 (human gastric cancer cells); assay: MTT cancer cell growth inhibition; format: cell-based; conditions: Homo sapiens, BGC-823, 72 h, 72 hours incubation, BGC-823 cells, read-out: GI50 BGC8
From the text: as §1, §2, §3, §4, §5, §6, §7, §8

[15] = system: DU145 (human prostate cancer cells); assay: MTT cancer cell growth inhibition; format: cell-based; conditions: Homo sapiens, DU-145, 72 h, 72 hours incubation, DU145 cells, read-out: GI50 Du14
From the text: as §1, §2, §3, §4, §5, §6, §7, §8

[16] = system: HT1080 (human fibrosarcoma cells); assay: MTT cancer cell growth inhibition; format: cell-based; conditions: Homo sapiens, HT-1080, 72 h, 72 hours incubation, HT1080 cells, read-out: GI50 HT10
From the text: as §1, §2, §3, §4, §5, §6, §7, §8

[17] = system: Hela (human cervical cancer cells); assay: MTT cancer cell growth inhibition; format: cell-based; conditions: Homo sapiens, HeLa, 72 h, 72 hours incubation, Hela cells, read-out: GI50 Hela
From the text: as §1, §2, §3, §4, §5, §6, §7, §8

[18] = system: MCF-7 (human breast cancer cells); assay: MTT cancer cell growth inhibition; format: cell-based; conditions: Homo sapiens, MCF7, 72 h, 72 hours incubation, MCF-7 cells
From the text: as §1, §2, §3, §4, §5, §6, §7, §8

[19] = system: MOLT-4 (human acute lymphoblastic leukemia cells); assay: MTT cancer cell growth inhibition; format: cell-based; conditions: Homo sapiens, MOLT-4, 72 h, 72 hours incubation, MOLT-4 cells, read-out: GI50 Molt-
From the text: as §1, §2, §3, §4, §5, §6, §7, §8

[20] = system: PANC-1 (Pac-1, human pancreatic cancer cells); assay: MTT cancer cell growth inhibition; format: cell-based; conditions: Homo sapiens, PANC-1, 72 h, 72 hours incubation, PANC-1 cells, read-out: GI50 PAN
From the text: as §1, §2, §3, §4, §5, §6, §7, §8

[21] = system: U937 (human leukemia cells); assay: MTT cancer cell growth inhibition; format: cell-based; conditions: Homo sapiens, U-937, 72 h, 72 hours incubation
From the text: as §1, §2, §3, §4, §5, §6, §7, §8

[22] = system: lncap (prostate cancer cells); assay: MTT cancer cell growth inhibition; format: cell-based; conditions: Homo sapiens, LNCaP, 72 h, 72 hours incubation, lncap cells, read-out: GI50 lncap
From the text: as §1, §2, §3, §4, §5, §6, §7, §8

[23] = biological target: HDAC3 (Homo sapiens, UniProt O15379); assay: HDAC biochemical activity measurement (fluorescent substrate deacetylation); conditions: IC50 (μM) HDAC3, HDAC3 enzyme, 37°, 30 minutes
Description: as §9, §10

[24] = biological target: T2, HDAC11 (Homo sapiens, UniProt Q96DB2); assay: as above; conditions: IC50 (μM) HDAC11, HDAC11 enzyme, 37°, 30 minutes
T2 sequence (Q96DB2 1-347): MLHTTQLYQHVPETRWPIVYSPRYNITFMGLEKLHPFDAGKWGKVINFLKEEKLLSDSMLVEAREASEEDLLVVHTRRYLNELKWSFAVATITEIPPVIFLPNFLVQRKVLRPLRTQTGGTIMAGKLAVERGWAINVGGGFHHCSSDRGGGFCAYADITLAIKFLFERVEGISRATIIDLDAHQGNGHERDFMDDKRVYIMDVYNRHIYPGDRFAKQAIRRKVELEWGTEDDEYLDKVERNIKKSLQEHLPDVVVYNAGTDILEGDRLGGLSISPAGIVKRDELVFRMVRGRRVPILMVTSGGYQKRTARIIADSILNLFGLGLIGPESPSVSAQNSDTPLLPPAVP
Description: as §9, §10

HDAC2, sequence (Q92769 whole entry, species assumed): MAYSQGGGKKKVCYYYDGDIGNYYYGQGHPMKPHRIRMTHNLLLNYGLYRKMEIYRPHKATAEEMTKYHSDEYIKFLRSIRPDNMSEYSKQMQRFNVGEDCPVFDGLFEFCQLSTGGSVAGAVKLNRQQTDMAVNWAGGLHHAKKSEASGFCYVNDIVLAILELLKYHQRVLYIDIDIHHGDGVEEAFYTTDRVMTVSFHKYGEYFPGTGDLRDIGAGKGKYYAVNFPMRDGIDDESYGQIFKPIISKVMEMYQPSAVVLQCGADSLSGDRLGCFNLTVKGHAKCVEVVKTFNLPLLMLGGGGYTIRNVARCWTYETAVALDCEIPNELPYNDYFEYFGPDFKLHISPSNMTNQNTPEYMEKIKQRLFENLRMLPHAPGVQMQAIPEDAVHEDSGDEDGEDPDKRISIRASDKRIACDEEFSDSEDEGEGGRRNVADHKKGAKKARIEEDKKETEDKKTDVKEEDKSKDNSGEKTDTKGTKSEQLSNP
HDAC1, sequence (Q13547 whole entry, species assumed): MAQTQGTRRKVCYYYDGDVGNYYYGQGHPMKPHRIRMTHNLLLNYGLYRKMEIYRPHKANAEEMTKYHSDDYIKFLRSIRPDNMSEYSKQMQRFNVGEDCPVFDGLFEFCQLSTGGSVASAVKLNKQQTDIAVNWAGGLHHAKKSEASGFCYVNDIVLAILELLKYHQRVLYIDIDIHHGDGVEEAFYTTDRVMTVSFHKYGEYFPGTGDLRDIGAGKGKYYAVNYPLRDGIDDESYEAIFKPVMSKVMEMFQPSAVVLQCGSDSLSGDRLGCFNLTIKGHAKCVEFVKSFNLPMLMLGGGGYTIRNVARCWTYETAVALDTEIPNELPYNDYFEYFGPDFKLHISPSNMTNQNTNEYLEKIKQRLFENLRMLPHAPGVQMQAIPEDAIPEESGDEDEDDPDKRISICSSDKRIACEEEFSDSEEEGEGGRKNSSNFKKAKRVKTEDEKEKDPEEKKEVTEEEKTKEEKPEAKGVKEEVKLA
HDAC3, sequence (O15379 whole entry, species assumed): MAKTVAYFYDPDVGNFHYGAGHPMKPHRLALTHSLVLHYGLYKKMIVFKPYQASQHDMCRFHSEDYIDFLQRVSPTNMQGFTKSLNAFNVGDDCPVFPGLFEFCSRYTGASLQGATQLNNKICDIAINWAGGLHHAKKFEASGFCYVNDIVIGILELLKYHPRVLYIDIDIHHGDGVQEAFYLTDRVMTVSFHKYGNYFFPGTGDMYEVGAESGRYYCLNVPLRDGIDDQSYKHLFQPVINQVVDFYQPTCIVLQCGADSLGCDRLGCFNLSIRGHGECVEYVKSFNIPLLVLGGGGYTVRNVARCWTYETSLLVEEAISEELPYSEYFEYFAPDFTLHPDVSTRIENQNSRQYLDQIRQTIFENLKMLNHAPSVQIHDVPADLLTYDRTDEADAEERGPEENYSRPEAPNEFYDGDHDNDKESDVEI
HDAC3, sequence (Q9Y618 395-489 partner limits assumed, species assumed): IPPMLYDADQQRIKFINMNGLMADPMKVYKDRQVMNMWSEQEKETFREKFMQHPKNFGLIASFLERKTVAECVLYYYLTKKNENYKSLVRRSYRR

C/C=C1\NC(=O)c2ccc(F)c(n2)CNC(=O)C[C@@H](/C=C/CCSC(C)=O)OC(=O)[C@H](C(C)C)NC1=O (single isomer, unassigned) [Example 50]
GI50 [1]: 25 nM | GI50 [2]: 42 nM | GI50 [3]: 79 nM | GI50 [4]: 63 nM | GI50 [5]: 25 nM | GI50 [6]: 69 nM | GI50 [7]: 39 nM

C/C=C1\NC(=O)c2cc(F)cc(n2)CNC(=O)C[C@@H](/C=C/CCSC(C)=O)OC(=O)[C@H](C(C)C)NC1=O [Compound 49]
GI50 [8]: 72 nM | GI50 [9]: 72 nM | GI50 [1]: 26 nM | GI50 [2]: 17 nM | GI50 [3]: 87 nM | GI50 [4]: 55 nM | GI50 [5]: 26 nM | GI50 [6]: 73 nM | GI50 [7]: 67 nM

C/C=C1\NC(=O)c2ccc(SC)c(n2)CNC(=O)C[C@@H](/C=C/CCSC(=O)CCC)OC(=O)[C@H](C(C)C)NC1=O [Compound 161]
IC50 [10]: 0.061 µM | IC50 [11]: 0.033 µM | IC50 [12]: 0.062 µM | GI50 [13]: 83 nM | GI50 [14]: 29 nM | GI50 [15]: 23 nM | GI50 [16]: 57 nM | GI50 [17]: 12 nM | GI50 [18]: 73 nM | GI50 [19]: 32 nM | GI50 [20]: 11 nM | GI50 [21]: 65 nM | GI50 [22]: 79 nM | IC50 [23]: 0.063 µM | IC50 [24]: 0.086 µM
